# Measurements published in patent publication US20160051514A1, “METHODS FOR TREATMENT OF CARDIOMYOPATHY” (THE BRIGHAM AND WOMEN'S HOSPITAL, INC., priority 2013, published 2016).
# “Also recorded” adds a separate entry of the source.
# Tests used:
# Type in all cases: cell-based
# [1] = test system: neonatal rat ventricular myocytes expressing 2057del2 plakoglobin; assay: Immunofluorescence of intercalated disk proteins in neonatal rat ventricular myocytes
# Procedure: Neonatal rat ventricular myocyte isolation and culture, stretch protocols: Primary cardiac myocyte cultures were prepared from ventricles of 1-day-old Wistar rat pups (Charles River) as previously described.^9 Cells were plated on collagen-coated plastic chamber slides at a density of […] cells/cm^2 and grown for 4 days prior to experimentation. In selected experiments, monolayers grown on collagen--coated silicone membranes were subjected to linear pulsatile stretch using a custom-designed apparatus as described in previous studies.'° Cells were stretched to 110% of resting length at a. frequency of 3 Hz for 1-4 hr in serum-free medium. In other experiments cultures were incubated with reagents including pifitlirin A (5 μM, 1 hr) and SB216763 (5 μM, 24 hr) prior to experimentation. All protocols were approved by the Institutional Animal Care and Use Committee (IACUC).
# Viral transfection: A recombinant adenoviral construct expressing 2057del2-plakoglobin was created with the ViraPower Adenoviral Expression system (Invitrogen) using the pAd/CMV/V5-DEST vector through LR clonase-mediated recombination. The V5-tag was used to identify the mutant protein and distinguish it from wildtype plakoglobin. Two days post-plating, monolayers were exposed to viral solution (1:130 dilution in serum-free media, 37° C.) for 1 hr after which viral solution was replaced with complete medium in the presence or absence of reagents.
# Immunofluoresence staining and microscopy in cultured cells: Cultures were rinsed in serum-free medium and fixed in 4% paraformaldehyde at room temperature for 5 min or in acetone at −20° C. for 10 min. Fixed cells were immunostained with mouse monoclonal anti-plakoglobin (Sigma), anti-N-cadhcrin (Sigma), anti-Cx43 (Millipore), anti-desmopla.kin (Fitzgerald), anti-SAP97 (Santa Cruz Biotechnology) antibodies and anti-Nav1.5 (kindly provided by Dr. Hugues Abriel, University of Bern, Switzerland) antibodies. Specific immunoreactive signal was detected by laser scanning confocal microscopy as previously described.”
# Neonatal rat ventricular myocyte isolation, culture, stretch protocols: Primary cardiac myocyte cultures were prepared from ventricles of 1-day-old Wistar rat pups (Charles River) as previously described (36). Cells were plated on collagen-coated plastic chamber slides at a density of 2.4×10^5 cells/cm2 and grown for 4 days prior to experimentation. In selected experiments, monolayers grown on collagen-coated silicone membranes were subjected to linear pulsatile stretch using a custom-designed apparatus as described in previous studies (35). Cells were stretched to 110% of resting length at a frequency of 3 Hz for 1-4 hr in serum-free medium. In other experiments cultures were incubated with reagents including pifithrin A (5 μM, 1 hr) and SB216763 (0.1-10 μM for 12 or 24 hr) prior to experimentation. Vehicle controls (DMSO) were included in all experiments.
# Viral transfection: A recombinant adenoviral construct expressing 2057del2 plakoglobin was created with the ViraPower Adenoviral Expression™ system (Invitrogen) using the pAd/CMV/V5-DEST vector through LR clonase-mediated recombination. The V5-tag was used to identify the mutant protein and distinguish it from wildtype plakoglobin. Two days post-plating, monolayers were exposed to viral solution (1:130 dilution in serum-free media, 37° C.) for 1 hr after which viral solution was replaced with complete medium in the presence or absence of reagents. Immunofluorescence staining and microscopy in cultured cells: Cultures were rinsed in serum-free medium and fixed in 4% paraformaldehyde at 25° C. for 5 min or in acetone at −20° C. for 10 min. Fixed cells were immunostained with mouse monoclonal anti-plakoglobin (Sigma), anti-N-cadherin (Sigma), anti-Cx43 (Millipore), anti-desmoplakin (Fitzgerald), anti-SAP97 (Santa Cruz Biotechnology) antibodies and anti-Nav1.5 antibodies (rabbit polyclonal).
# [2] = test system: neonatal rat ventricular myocytes expressing 2057del2 plakoglobin; assay: TUNEL assay of myocyte apoptosis; settings: cells expressing 2057del2 plakoglobin, SB216763
# From the text: (§1) TUNEL assay: Apoptotic cells in cultures were detected by terminal deoxynucleotidyl transferase-mediated biotinylated UTP nick end-labeling (TUNEL) assay using the ApopTag™ Fluorescein Direct in Situ Apoptosis Detection Kit (Millipore) as previously described.^9 Nuclei were stained with DAPI, and TUNEL-positive and total nuclei were counted under a laser scanning confocal microscope in 5 fields per chamber.
# as §1, with “ApopTag” for “ApopTag™”, “KitTM” for “Kit”, “according to the manufacturer's instructions.” for “as previously described.^9”, “DAPI;” for “DAPI, and”, “chamber or silicone membrane in stretch experiments.” for “chamber.”
# [3] = test system: neonatal rat ventricular myocytes expressing 2057del2 plakoglobin; assay: INa and IK1 current density in neonatal rat ventricular myocytes
# Procedure: INa activation and inactivation were measured by whole-cell voltage-clamp according to standard protocols (32,33). Cells were held at a membrane potential of −80 mV after which pulses between −120 and +50 mV were applied in 5 mV steps each with a duration of 250 ms. Inactivation was measured from membrane potentials between −120 mV and +50 mV at maximal activation (26,33). In view of the small size of zebrafish myocytes (cell capacitance of 6.7±2.6pF; n=47) it was not necessary to reduce extracellular [Na+] to achieve voltage control; extracellular [Na+] was reduced to 50 mM in studies of neonatal rat ventricular myocytes Access resistance of the patch electrodes was <7 MΩ. Measurements showing incomplete control of membrane potential were eliminated from analysis. The chemical composition of the external and pipette solutions is described in supplemental information.
# The inward rectifier current IK1 was measured using the protocol described by Dobrev et al. and Nemtsas et al. (34,35). Ramp clamps of 1400 ms duration were applied between −120 and +20 mV. After each clamp, external solution containing Ba2+(1 mM) was applied via a large pore pipette placed adjacent to the clamped cell. IK1 was defined as the total current minus the Ba2+-insensitive current (33). Subtraction of the two currents was performed using a MatLab script. […]
# [4] = cells expressing 2057del2 plakoglobin, 5 μM, 24 hr
# [5] = cells expressing 2057del2 plakoglobin, 5 μM, 24 hr, listed as SAB216763
# [6] = cells expressing 2057del2 plakoglobin, exposure for 24 hr
structure (smiles),measurement,setting,value
Cn1cc(C2=C(c3ccc(Cl)cc3Cl)C(=O)NC2=O)c2ccccc21 [SB216763],"Disease features (plakoglobin redistribution, gap junction remodeling, cytokine expression, myocyte apoptosis), summary statements",[1],normalized; also recorded: reversed or prevented
same,Gap junction remodeling / junctional Cx43 signal,[1]; [4],increased junctional signal for Cx43; also recorded: prevented the adverse remodeling of gap junctions
same,Subcellular distribution of plakoglobin immunoreactive signal (junctional vs intracellular/nuclear),[1]; [4],prevented the marked change in subcellular distribution of plakoglobin and accumulation of nuclear signal
same,Gap junction remodeling / junctional Cx43 signal,[1]; [5],blocked
same,Subcellular distribution of plakoglobin immunoreactive signal (junctional vs intracellular/nuclear),[1]; [5],prevented redistribution of plakoglobin from junctional to intracellular pools
same,Nav1.5 immunoreactive signal,[1]; [6],signal levels were restored; also recorded: reversed
same,SAP97 immunoreactive signal at the cell surface / cell-cell junctions,[1]; [6],a more normal distribution was restored; also recorded: fully reversed
same,Cx43 signal at cell-cell junctions in control (non-transfected) cultures,"[1]; control cultures, 5 μM, 24 hr",increased the amount of Cx43 signal at cell-cell junctions; also recorded: also increased junctional signal for Cx43
same,Concentration of maximal effect in restoring normal cellular distribution of plakoglobin and Cx43 signals,"[1]; dose-response 0.1-10 μM for 12 or 24 hours, maximal at 24 hr",5 µM
same,Myocyte apoptosis (TUNEL-positive nuclei),[2],dramatically reduced the number of TUNEL positive nuclei; also recorded: significantly reduced the mean apoptosis index
same,Myocyte apoptosis (TUNEL-positive nuclei),[2]; listed as SAB216763,totally abolished
same,Reduced INa and IK1 current densities in cells expressing mutant plakoglobin,[3],normalized the reduced current densities
